Measured values from patent US20250099530A1, “COMPOUND FOR USE IN PREVENTING AND/OR TREATING AN INFECTION CAUSED BY SARS-COV-2” (priority 2022, published 2025).
Entries after “also recorded” stand apart in the source; their conditions may differ.

Columns and labels:
[1] = tested on: SARS-CoV-2; conditions: cited from earlier work
[2] = tested on: HIV; conditions: cited from earlier work
[3] = tested on: SARS-CoV-2; assay: COVID-19 golden Syrian hamster model; format: in vivo; conditions: for viral replication decrease in the lungs compared to vehicle / viral load and viral replication in the lungs: 10 mg/kg IP on Day 0 (t+1 h) and Day 1, lungs at 2 dpi; for viral load and viral replication in the lungs: versus untreated groups; for clinical scores and body weight change vs Day 0: 10 mg/kg IP on Day 0 (t+1 h) and Day 1, versus infected untreated group
[4] = tested on: caspase; conditions: cited from earlier work
[5] = tested on: SIV; conditions: SIV-infected rhesus macaques; cited from earlier work
[6] = tested on: SARS-CoV-2; assay: Antiviral activity, full treatment: Spike staining by flow cytometry and western blot of S and N proteins in infected cells; format: cell-based, SARS-CoV-2 strain BetaCoV/France/IDF0372/2020
Experimental: A) Vero E6/TMPRSS2 cells non infected or infected with the SARS-CoV-2 at MOI 0.05 were incubated with different concentrations of QVDM-OPh (10, 25, 50, 100 μM), Vx765 (25 μM) or Remdesivir (10 μM) for 1 h, before the infection. Afterwards, the cells were cultured with drug-containing medium until the end of the experiment (Full treatment) without removing the virus from the culture. After 72 h post-infection, cells were collected and stained for mortality and infection rate analysis. The % of infection is represented in each plot of analysis.
B) Results represent the % of infection detected by the Spike protein staining in the different infected and treated cells compared to the infected untreated group. Results represent mean+/−SD of 4 independent experiments with 3 independent points for each condition separately. Statistical significance was assessed applying One-way ANOVA test followed by Dunnett's post-hoc test using GraphPad Prism software (GraphPad Software Inc., USA). (****P<0.0001).
A-B) Vero E6/TMRPSS2 cells were pre-treated with QVDM-OPh peptide or Remdesivir at the indicated concentrations for 1 h, before the infection with the virus at MOI=0.05. Afterwards, the cells were cultured with drug-containing medium until the end of the experiment (Full treatment). A well with non-infected cells was performed as a negative control of the infection. At 72 h post-infection, cells were lysed by RIPA buffer and western blot analysis was performed to detect the expression of the Spike protein (S), the full length and S1 domain, and the Nucleocapsid protein (N). GAPDH was used as loading control. Results represent mean±SD, from 4 independent experiments with 3 independent points per condition.
To evaluate the toxicity of the QVDM-OPh on Vero E6 Cells and the antiviral efficacy, the percentage of mortality and the percentage of infected cells were measured by flow cytometry. Cells were cultured overnight in 24-well cell-culture petri-dish with a density of 75×10^4 cells/well. The next day, cells were pretreated or not for 1 h with the different doses of the indicated QVDM-OPh, Vx765 or Remdesivir at different concentrations. Then, the virus was subsequently added at MOI 0.05 to allow infection for 2 h in 250 μl/well. Afterwards, complete media was added to cell culture to a final volume of 500 μl/well. Drugs were added each day at same concentration to cell culture. At 72 h post-infection, the cell supernatant was collected and frozen immediately at −80° C. for viral extraction and qRT-PCR amplification. The cells were collected and a part thereof was used to flow cytometry analysis to measure the rate of infection using an intracellular staining against Spike protein (SARS-CoV-2 Spike Protein-Alexa 647, Cat no. 51-6490-82, eBioscience) and a Cytofix/cytoperm fixation permeabilization kit (Cat no. 554714, BD) according to the manufacturer's instructions. Toxicity was analysed using Viability 405/452 Fixable Dye (Cat no. 130-109-814, from Miltenyi Biotec) according to the manufacturer's instructions. […] After the staining, the cells were fixed with 2% Paraformaldehyde (FPA) and then analyzed on a Fortessa Flow Cytometer. 30 000 events were recorded for each condition in triplicate. […] The other part of the cells was lysed in RIPA lysis buffer (Invitrogen, Cat no. 10230544) containing protease (Roche) and phosphatase inhibitors (Invitrogen) for further quantification and immunoblotting analysis, or in LBP buffer for RNA purification and RT-qPCR analysis. […]

[7] = tested on: SARS-CoV-2; assay: Virus yield in infected cell supernatants by qRT-PCR (N and NSP6 genes); format: cell-based, SARS-CoV-2 strain BetaCoV/France/IDF0372/2020
[8] = tested on: Vero E6/TMPRSS2 cells
[9] = tested on: SARS-CoV-2; assay: Intracellular qRT-PCR of SARS-CoV-2 S, N and NSP6 genes in infected cells, full treatment; format: cell-based, SARS-CoV-2 strain BetaCoV/France/IDF0372/2020; conditions: 72 h post-infection, normalized to GAPDH
[10] = Severe acute respiratory syndrome coronavirus 2, 72 h, read-out: inhibition of the viral replication
[11] = full treatment, 72 h post-infection

Row | SMILES | control of an in vitro infection caused by SARS-CoV-2 [1] | toxicity ([1]; in vitro) | HIV viral replication [2] | viral replication decrease in the lungs compared to vehicle [3] | viral load and viral replication in the lungs [3] | clinical scores and body weight change vs Day 0 [3] | caspase inhibitory activity [4] | AIDS disease progression [5] | control of SARS-CoV-2 infection in vitro ([6]; 25 μM and 50 μM) | inhibition at 10 µM [6, 10] | inhibition at 25 µM [6, 10] | inhibition at 50 µM [6, 10] | reduction of viral replication compared with Remdesivir [6, 11] | SARS-CoV-2 in the supernatant (N and NSP6 gene qRT-PCR) [7, 11] | inhibition of secretion/production of the virus from the cell to the media, compared with QVD-OPh ([7]; identical concentration, full treatment and post-entry (FIGS. 5 and 9)) | toxicity ([8]; 25 μM and 50 μM) | toxicity effect on Vero E6/TMPRSS2 cells ([8]; different concentrations (25, 50, 100 μM each day), cells infected or not at MOI 0.05, 72 h post-infection) | relative expression of the Spike, Nucleocapsid and NSP6 genes inside the cells [9]
1 | CC(C)C(NC(=O)c1ccc2ccccc2n1)C(=O)NC(CCC(=O)O)C(=O)COc1c(F)cccc1F (stereo not shown) [QVE-OPh] | highly effective | without any toxicity | same anti-viral effect | 52% | significant reduction | encouraging results | no caspase inhibitory activity | – | – | – | – | – | – | – | – | – | – | –
2 | CC(C)C(NC(=O)c1ccc2ccccc2n1)C(=O)NC(CC(=O)O)C(=O)COc1c(F)cccc1F (stereo not shown) [QVD-OPh] | – | – | inhibits also the viral replication; also recorded: same anti-viral effect | – | – | – | broad caspase inhibitor | AIDS disease progression is prevented | – | – | – | – | – | – | – | – | – | –
3 | COC(=O)CC(NC(=O)C(NC(=O)c1ccc2ccccc2n1)C(C)C)C(=O)COc1c(F)cccc1F (stereo not shown) [QVDM-OPh] | – | – | same anti-viral effect | 70% | significant reduction | encouraging results | pan-caspase inhibitor | – | highly effective | ~50% | ~70% | ~99% | comparable | significantly reduce | more efficiently than QVD-OPh | without any toxicity | no toxicity effect | reduce significantly
